From US20260137745A1, “QUERCETAGETIN ENRICHED MARIGOLD EXTRACTS, COMPOSITIONS, METHODS OF PREPARATION AND USE THEREOF” (AVT NATURAL PRODUCTS LTD., priority 2022, published 2026)
Converted amounts (≈) assume the structure as drawn. Read-outs that look alike come from different tables or passages of the source.

Assays:
[1] = Oxygen Radical Absorbance Capacity (ORAC) assay; assay type: biochemical; details: higher is better
Method: The Oxygen Radical Absorbance Capacity (ORAC) assay is a method that measures the antioxidant capacity of a substance. The ORAC assay measures a fluorescent signal from a probe that is quenched in the presence of Reactive Oxygen Species (ROS). […] In accordance with this protocol, ORAC assay was evaluated (using known protocols) for the composition comprising QG40 extract; the composition comprising QG90 extract and compared the same with composition comprising quercetin. […] Higher the ORAC value, means better performance by the composition.

[2] = tested on: Human Adult Epidermal Melanocytes (HAEM); test: Cellular melanin inhibition assay; assay type: cell-based; details: Melanocyte, read-out: melanin inhibition IC50
Method: Cellular melanin inhibition assay is a cell-based assay designed for measuring Melanin inhibition in Human Adult Epidermal Melanocytes (HAEM). Darkly pigmented melanocytes were treated with test samples and incubated for 72 hrs. Post incubation, melanin was extracted and measured at an absorbance of 490 nm to evaluate the non-cytotoxic concentration of test sample (i.e. composition with QG40 extract; the composition with QG90 extract and composition with quercetin) for melanin inhibition.

DPPH Antioxidant Assay = assay type: biochemical; details: lower is better
Method: DPPH assay is considered a valid accurate and easy method to evaluate radical scavenging activity of antioxidants. DPPH [1,1-diphenyl-2-picryl hydrazyl] is a stable free radical with purple color. Antioxidants reduce DPPH to 1,1-diphenyl-2-picryl hydrazine, a color less compound which is measured at an absorbance of […]. This is an accepted mechanism for screening the antioxidant activity of plant extracts in a concentration dependent manner. Accordingly, the DPPH Antioxidant Assay was conducted as per known protocols for the compositions comprising QG40, and compositions comprising QG90, and Quercetin.

[3] = tested on: Keratinocyte (HACAT) cells; test: Cellular ROS Assay; assay type: cell-based; details: Homo sapiens, DCF-DA probe, flow cytometry, read-out: ROS inhibition IC50
Method: The Cellular ROS Assay is a cell-based assay designed for measuring Reactive Oxygen Species activity within a cell using the cell-permeable fluorogenic probe 2′. 7′-Di chloro dihydro fluorescein diacetate (DCF-DA). […] ROS induces the modification of carboxy-H2DCFDA that fluoresces green as detected by flow cytometry. ROS inhibition was evaluated for the composition with QG40 extract; the composition with QG90 extract and composition with quercetin.

Row | IC50 ([2]; darkly pigmented melanocytes, 72 hrs incubation) [µg/mL] | Structure (SMILES) | ORAC value [1] [m1\4 TE/g] | IC50 ([2]; 72 h) [µg/mL] | DPPH Scavenging activity (IC50) (DPPH Antioxidant Assay) [µg/mL] | IC50 [3] [µg/mL]
1 | – | O.O.O=c1c(O)c(-c2ccc(O)c(O)c2)oc2cc(O)cc(O)c12 [Composition having Quercetin, Quercetin dihydrate] | 18.69 | 9.62 | 6.27 | 16.5
2 | 25 (≈ 176 µM) | O=c1cc(CO)occ1O [Kojic acid] | – | – | – | –
